Results from patent US20200017496A1 (priority 2017, published 2020).
Where two headings read alike, the source gives them in different places.

What was measured:
[1] = tested on: Proteus mirabilis (PMI) isolates; test: microbe, parasite or virus in culture; assay type: cell-based; conditions: for MIC: Proteus mirabilis, read-out: MIC
Summary of the method: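 Log-phase isolates at final 5·10^5 CFU/mL in cation-adjusted Mueller-Hinton broth, incubated 16-20 h at 35° C in ambient air. MIC read visually as lowest concentration preventing growth, for compound alone and for antibacterial at each compound concentration.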

[2] = tested on: Citrobacter freundii (CFR) isolates; test: MIC of compounds alone and combined with antibacterials, broth microdilution (CLSI); assay type: cell-based; conditions: for MIC: Citrobacter freundii, read-out: MIC
Experimental: Method 2: MIC of Compounds Alone and Combined with Antibacterials Against Bacterial Isolates.
Compounds of the present invention were assessed against genotyped bacterial strains (Table 3, 4) alone or in combination with an antibacterial (Table 2). […] Log phase bacterial suspensions were adjusted to a final density of 5·10^5 CFU/mL in cation-adjusted Mueller-Hinton broth (ca-MHB; Becton-Dickinson and Company) and added to each well (98 μL). Microplates were incubated for 16-20 h at 35° C. in ambient air. The MIC of the compounds was defined as the lowest concentration of said compounds that prevented bacterial growth as read by visual inspection. The MIC of ATB at each compound concentration was defined as the lowest concentration of ATB that prevented bacterial growth as read by visual inspection.

Q: C=CC1=C(C(=O)O)N2C(=O)[C@@H](NC(=O)/C(=N\OCC(=O)O)c3csc(N)n3)[C@H]2SC1 [FIX, Cefixime] was tested. Which “MIC ATB in combination” value ([1]; PMI UFR82, AF1 @ 4 μg/mL) did it give?
A: <=0.25 μg/mL

Q: And the “MIC ATB in combination” value ([1]; PMI UFR82, AF1 @ 8 μg/mL)?
A: <=0.25 μg/mL

Q: What about the “MIC ATB in combination” value ([1]; PMI UFR120, AF1 @ 4 μg/mL) of the same molecule?
A: <=0.25 μg/mL

Q: And the “MIC ATB in combination” value ([1]; PMI UFR120, AF1 @ 8 μg/mL)?
A: <=0.25 μg/mL

Q: And the “MIC ATB in combination” value ([1]; PMI UFR121, AF1 @ 4 μg/mL)?
A: <=0.25 μg/mL

Q: And the “MIC ATB in combination” value ([1]; PMI UFR121, AF1 @ 8 μg/mL)?
A: <=0.25 μg/mL

Q: And the “MIC ATB in combination” value ([1]; PMI UFR122, AF1 @ 4 μg/mL)?
A: <=0.25 μg/mL

Q: And the “MIC ATB in combination” value ([1]; PMI UFR122, AF1 @ 8 μg/mL)?
A: <=0.25 μg/mL

Q: What about the “MIC ATB in combination” value ([1]; PMI UFR123, AF1 @ 4 μg/mL) of the same molecule?
A: <=0.25 μg/mL

Q: What about the “MIC ATB in combination” value ([1]; PMI UFR123, AF1 @ 8 μg/mL) of the same molecule?
A: <=0.25 μg/mL

Q: What about the “MIC ATB in combination” value ([1]; PMI UFR124, AF1 @ 4 μg/mL) of the same molecule?
A: <=0.25 μg/mL

Q: What about the “MIC ATB in combination” value ([1]; PMI UFR124, AF1 @ 8 μg/mL) of the same molecule?
A: <=0.25 μg/mL

Q: What about the “MIC ATB in combination” value ([1]; PMI UFR125, AF1 @ 4 μg/mL) of the same molecule?
A: <=0.25 μg/mL

Q: What about the “MIC ATB in combination” value ([1]; PMI UFR125, AF1 @ 8 μg/mL) of the same molecule?
A: <=0.25 μg/mL

Q: What about the “MIC ATB in combination” value ([1]; PMI UFR126, AF1 @ 4 μg/mL) of the same molecule?
A: 0.031 µg/mL

Q: What about the “MIC ATB in combination” value ([1]; PMI UFR126, AF1 @ 8 μg/mL) of the same molecule?
A: 0.016 µg/mL

Q: What about the “MIC ATB in combination” value ([1]; PMI UFR127, AF1 @ 4 μg/mL) of the same molecule?
A: <=0.25 μg/mL

Q: And the “MIC ATB in combination” value ([1]; PMI UFR127, AF1 @ 8 μg/mL)?
A: <=0.25 μg/mL

Q: And the “MIC ATB in combination” value ([1]; PMI UFR129, AF1 @ 4 μg/mL)?
A: <=0.25 μg/mL

Q: And the “MIC ATB in combination” value ([1]; PMI UFR129, AF1 @ 8 μg/mL)?
A: <=0.25 μg/mL

Q: What about the “MIC ATB in combination” value ([1]; PMI UFR130, AF1 @ 4 μg/mL) of the same molecule?
A: <=0.25 μg/mL

Q: And the “MIC ATB in combination” value ([1]; PMI UFR130, AF1 @ 8 μg/mL)?
A: <=0.25 μg/mL

Q: And the “MIC ATB in combination” value ([1]; PMI UFR237, AF1 @ 4 μg/mL)?
A: <=0.25 μg/mL

Q: And the “MIC ATB in combination” value ([1]; PMI UFR237, AF1 @ 8 μg/mL)?
A: <=0.25 μg/mL

Q: And the MIC ([1]; PMI UFR126, alone)?
A: 1020 µg/mL

Q: What about the MIC ([1]; PMI UFR127, alone) of the same molecule?
A: > 128 µg/mL

Q: What about the MIC ([1]; strain PMI UFR82 (CMY-2), ATB alone) of the same molecule?
A: 8 µg/mL

Q: And the MIC ([1]; strain PMI UFR82 (CMY-2), CLA @ 4 μg/ml+ ATB)?
A: 4 µg/mL

Q: What about the MIC ([1]; strain PMI UFR120 (TEM-1, SHV-11, CTX-M-14), ATB alone) of the same molecule?
A: 0.5 µg/mL

Q: And the MIC ([1]; strain PMI UFR120 (TEM-1, SHV-11, CTX-M-14), CLA @ 4 μg/ml+ ATB)?
A: ≤ 0.25 µg/mL

Q: And the MIC ([1]; strain PMI UFR121 (TEM-1, TEM-52), ATB alone)?
A: 128 µg/mL

Q: And the MIC ([1]; strain PMI UFR121 (TEM-1, TEM-52), CLA @ 4 μg/ml+ ATB)?
A: ≤ 0.25 µg/mL

Q: And the MIC ([1]; strain PMI UFR122 (TEM-1, CTX-M-15), ATB alone)?
A: 1 µg/mL

Q: And the MIC ([1]; strain PMI UFR122 (TEM-1, CTX-M-15), CLA @ 4 μg/ml+ ATB)?
A: ≤ 0.25 µg/mL

Q: And the MIC ([1]; strain PMI UFR123 (CTX-M-1), ATB alone)?
A: 128 µg/mL

Q: And the MIC ([1]; strain PMI UFR123 (CTX-M-1), CLA @ 4 μg/ml+ ATB)?
A: ≤ 0.25 µg/mL

Q: And the MIC ([1]; strain PMI UFR124 (CTX-M-2), ATB alone)?
A: > 128 µg/mL

Q: What about the MIC ([1]; strain PMI UFR124 (CTX-M-2), CLA @ 4 μg/ml+ ATB) of the same molecule?
A: ≤ 0.25 µg/mL

Q: And the MIC ([1]; strain PMI UFR125 (CTX-M-71), ATB alone)?
A: 0.5 µg/mL

Q: What about the MIC ([1]; strain PMI UFR125 (CTX-M-71), CLA @ 4 μg/ml+ ATB) of the same molecule?
A: ≤ 0.25 µg/mL

Q: And the MIC ([1]; strain PMI UFR126 (TEM-2, PER-1), ATB alone)?
A: 1020 µg/mL

Q: And the MIC ([1]; strain PMI UFR126 (TEM-2, PER-1), CLA @ 4 μg/ml+ ATB)?
A: ≤ 0.25 µg/mL

Q: What about the MIC ([1]; strain PMI UFR127 (VEB-1), ATB alone) of the same molecule?
A: > 128 µg/mL

Q: And the MIC ([1]; strain PMI UFR127 (VEB-1), CLA @ 4 μg/ml+ ATB)?
A: ≤ 0.25 µg/mL

Q: And the MIC ([1]; strain PMI UFR129 (TEM-1, VEB-6), ATB alone)?
A: > 128 µg/mL

Q: And the MIC ([1]; strain PMI UFR129 (TEM-1, VEB-6), CLA @ 4 μg/ml+ ATB)?
A: ≤ 0.25 µg/mL

Q: And the MIC ([1]; strain PMI UFR130 (CMY-2), ATB alone)?
A: 8 µg/mL

Q: And the MIC ([1]; strain PMI UFR130 (CMY-2), CLA @ 4 μg/ml+ ATB)?
A: 8 µg/mL

Q: And the MIC ([1]; strain PMI UFR237 (VEB-6), ATB alone)?
A: > 128 µg/mL

Q: What about the MIC ([1]; strain PMI UFR237 (VEB-6), CLA @ 4 μg/ml+ ATB) of the same molecule?
A: ≤ 0.25 µg/mL

Q: And the “MIC ATB in combination” value [2]?
A: >128 µg/mL

Q: What about the “MIC ATB in combination” value ([2]; CFR UFR10, AF1 @ 4 μg/mL) of the same molecule?
A: <=0.25 μg/mL

Q: And the “MIC ATB in combination” value ([2]; CFR UFR10, AF1 @ 8 μg/mL)?
A: <=0.25 μg/mL

Q: What about the “MIC ATB in combination” value ([2]; CFR UFR11, AF1 @ 4 μg/mL) of the same molecule?
A: 8 µg/mL

Q: What about the “MIC ATB in combination” value ([2]; CFR UFR11, AF1 @ 8 μg/mL) of the same molecule?
A: 4 µg/mL

Q: What about the “MIC ATB in combination” value ([2]; CFR UFR83, AF1 @ 8 μg/mL) of the same molecule?
A: 128 µg/mL

Q: And the “MIC ATB in combination” value ([2]; CFR UFR146, AF1 @ 4 μg/mL)?
A: 1 µg/mL

Q: What about the “MIC ATB in combination” value ([2]; CFR UFR146, AF1 @ 8 μg/mL) of the same molecule?
A: 1 µg/mL

Q: And the “MIC ATB in combination” value ([2]; CFR UFR248, AF1 @ 4 μg/mL)?
A: <=0.25 μg/mL

Q: And the “MIC ATB in combination” value ([2]; CFR UFR248, AF1 @ 8 μg/mL)?
A: <=0.25 μg/mL

Q: What about the “MIC ATB in combination” value ([2]; CFR UFR249, AF1 @ 4 μg/mL) of the same molecule?
A: <=0.25 μg/mL

Q: And the “MIC ATB in combination” value ([2]; CFR UFR249, AF1 @ 8 μg/mL)?
A: <=0.25 μg/mL

Q: And the “MIC ATB in combination” value ([2]; CFR UFR250, AF1 @ 4 μg/mL)?
A: <=0.25 μg/mL

Q: What about the “MIC ATB in combination” value ([2]; CFR UFR250, AF1 @ 8 μg/mL) of the same molecule?
A: <=0.25 μg/mL

Q: And the MIC ([2]; ATB alone, strain CFR UFR253 (TEM-1, SHV-12, OXA-48))?
A: > 128 µg/mL

Q: What about the MIC ([2]; ATB alone, strain CFR UFR254 (VEB-1b, OXA-48, qnrA)) of the same molecule?
A: 32 µg/mL

Q: And the MIC ([2]; ATB combined with CLA @ 4 μg/ml, strain CFR UFR253 (TEM-1, SHV-12, OXA-48))?
A: > 128 µg/mL

Q: And the MIC ([2]; ATB combined with CLA @ 4 μg/ml, strain CFR UFR254 (VEB-1b, OXA-48, qnrA))?
A: 16 µg/mL

Q: What about the MIC ([2]; CFR UFR250, alone) of the same molecule?
A: > 128 µg/mL

Q: And the MIC ([2]; strain CFR UFR10 (OXA-48), ATB alone)?
A: > 128 µg/mL

Q: And the MIC ([2]; strain CFR UFR10 (OXA-48), CLA @ 4 μg/ml+ ATB)?
A: 32 µg/mL

Q: What about the MIC ([2]; strain CFR UFR11 (TEM-1, OXA-1, OXA-48), ATB alone) of the same molecule?
A: 32 µg/mL

Q: What about the MIC ([2]; strain CFR UFR11 (TEM-1, OXA-1, OXA-48), CLA @ 4 μg/ml+ ATB) of the same molecule?
A: 32 µg/mL

Q: And the MIC ([2]; strain CFR UFR83 (TEM-3, AmpC), ATB alone)?
A: > 128 µg/mL

Q: And the MIC ([2]; strain CFR UFR83 (TEM-3, AmpC), CLA @ 4 μg/ml+ ATB)?
A: > 128 µg/mL

Q: What about the MIC ([2]; strain CFR UFR146 (TEM-1, KPC-2), ATB alone) of the same molecule?
A: 64 µg/mL

Q: What about the MIC ([2]; strain CFR UFR146 (TEM-1, KPC-2), CLA @ 4 μg/ml+ ATB) of the same molecule?
A: 64 µg/mL

Q: And the MIC ([2]; strain CFR UFR248 (CTX-M-15), ATB alone)?
A: > 128 µg/mL

Q: What about the MIC ([2]; strain CFR UFR248 (CTX-M-15), CLA @ 4 μg/ml+ ATB) of the same molecule?
A: 4 µg/mL

Q: And the MIC ([2]; strain CFR UFR249 (TEM-1, CTX-M-15), ATB alone)?
A: > 128 µg/mL

Q: What about the MIC ([2]; strain CFR UFR249 (TEM-1, CTX-M-15), CLA @ 4 μg/ml+ ATB) of the same molecule?
A: 2 µg/mL

Q: And the MIC ([2]; strain CFR UFR250 (TEM-1, SHV-28, CTX-M-15), ATB alone)?
A: > 128 µg/mL

Q: What about the MIC ([2]; strain CFR UFR250 (TEM-1, SHV-28, CTX-M-15), CLA @ 4 μg/ml+ ATB) of the same molecule?
A: 2 µg/mL

Q: And the “MIC ATB in combination” value ([2]; strain CFR UFR253, antibacterial combined with AF1 @ 4 μg/mL)?
A: 32 µg/mL

Q: And the “MIC ATB in combination” value ([2]; strain CFR UFR253, antibacterial combined with AF1 @ 8 μg/mL)?
A: 16 µg/mL
